{
  "source": "paper PMC9231138",
  "about": "“Dihydrotanshinone I Enhances Cell Adhesion and Inhibits Cell Migration in Osteosarcoma U−2 OS Cells through CD44 and Chemokine Signaling” (Molecules, 2022)",
  "key": {"U−2 OS cells": {"test_system": "U−2 OS cells", "experiment": "MTT cell proliferation assay, U−2 OS cells", "format": "cell-based", "conditions": "Homo sapiens, U2OS, MTT", "method": "(§1) The effects of tanshinones (DS−1 to DS−5) on the proliferation of U−2 OS cells, HeLa cells, and NRK−49F cells were measured by the classical MTT method with minor modifications as follows. Cells were seeded at 5000 per well in 96-well plates, with each group being repeated in 5 wells, and were incubated for 12 h. DS−1 to DS−5 were added at gradient concentrations, then incubated for 24 and 48 h, respectively. Then, 20 μL MTT solution (solved in PBS, 5 mg/mL) was added to every well, and the cells were further incubated at 37 °C for 4 h until a purple precipitate was visible. The plate was centrifuged at 1000 rpm for 1 min; the supernatant was suctioned, and 150 μL of DMSO was added per well; the plate was shaken on a shaker protected from light for 15 min. We placed the plate in an enzyme marker and measured the absorbance values at a 490 nm wavelength."}, "HeLa cells": {"test_system": "HeLa cells", "experiment": "MTT cell proliferation assay, HeLa cells", "format": "cell-based", "conditions": "Homo sapiens, MTT, 24 h, read-out: IC50 HeLa cells (24 h)", "method": "as §1"}, "NRK−49F cells": {"test_system": "NRK−49F cells", "experiment": "MTT cell proliferation assay, NRK−49F cells", "format": "cell-based, rat", "conditions": "MTT, 24 h, normal rat kidney cells, read-out: IC50 NRK−49F cells (24 h)", "method": "as §1"}, "[1]": {"conditions": "24 h, read-out: IC50 U−2 OS cells (24 h)"}, "[2]": {"conditions": "48 h, read-out: IC50 U−2 OS cells (48 h)"}},
  "note": "Like-named read-outs stand apart in the source and are kept apart here.",
  "data": [
    {"compound": "C[C@H]1COC2=C1C(=O)C(=O)c1c2ccc2c1CCCC2(C)C", "note": "[DS−2, Cryptotanshinone]", "values": [
      {"measurement": "IC50", "setting": "U−2 OS cells; [1]", "result": "47.8 ± 4.96", "unit": "µM"},
      {"measurement": "IC50", "setting": "U−2 OS cells; [2]", "result": "25.6 ± 0.81", "unit": "µM"},
      {"measurement": "IC50", "setting": "HeLa cells", "result": "52.1 ± 3.2", "unit": "µM"},
      {"measurement": "IC50", "setting": "NRK−49F cells", "result": "35.4 ± 3.25", "unit": "µM"}
    ]},
    {"compound": "Cc1coc2c1C(=O)C(=O)c1c-2ccc2c(C)cccc12", "note": "[DS−3, Tanshinone I]", "values": [
      {"measurement": "IC50", "setting": "U−2 OS cells; [1]", "result": "17.8 ± 1.03", "unit": "µM"},
      {"measurement": "IC50", "setting": "U−2 OS cells; [2]", "result": "4.54 ± 1", "unit": "µM"},
      {"measurement": "IC50", "setting": "HeLa cells", "result": "20.9 ± 2.81", "unit": "µM"},
      {"measurement": "IC50", "setting": "NRK−49F cells", "result": "108 ± 28.9", "unit": "µM"}
    ]},
    {"compound": "CC1=CCCc2c1ccc1c2C(=O)C(=O)c2c(C)coc2-1", "note": "[DS−4, 1,2-Dihydrotanshinquinone]", "values": [
      {"measurement": "IC50", "setting": "U−2 OS cells; [1]", "result": "22.1 ± 1.31", "unit": "µM"},
      {"measurement": "IC50", "setting": "U−2 OS cells; [2]", "result": "5.89 ± 0.4", "unit": "µM"},
      {"measurement": "IC50", "setting": "HeLa cells", "result": "25 ± 2.03", "unit": "µM"},
      {"measurement": "IC50", "setting": "NRK−49F cells", "result": "31.8 ± 1.59", "unit": "µM"}
    ]},
    {"compound": "Cc1coc2c1C(=O)C(=O)c1c-2ccc2c1CCCC2(C)C", "note": "[DS−5, Tanshinone IIA]", "values": [
      {"measurement": "IC50", "setting": "U−2 OS cells; [1]", "result": "25.4 ± 1.43", "unit": "µM"},
      {"measurement": "IC50", "setting": "U−2 OS cells; [2]", "result": "5.91 ± 1.08", "unit": "µM"},
      {"measurement": "IC50", "setting": "HeLa cells", "result": "32.1 ± 1.94", "unit": "µM"},
      {"measurement": "IC50", "setting": "NRK−49F cells", "result": "> 50", "unit": "µM"}
    ]}
  ]
}
